Test results reported in US8450400B2, “Polypropylene resin composition and molded article made thereof” (Sumitomo Chemical Company, Limited, priority 2007, dated 2013).

Experiment: Weight loss rate by thermogravimetric analysis (TG-DTA) to 300° C. under nitrogen
Type: physicochemical
Conditions: room temperature to 300° C. at 10° C./min, nitrogen gas atmosphere (100 ml/min)
Experimental: Regarding requirement (c), from the viewpoint of the staining of a mold, the emitted amount of VOC, and the weather resistance, the weight loss rate measured in a thermogravimetric analysis at a temperature of 300° C. under a nitrogen gas atmosphere preferably is less than 5% by weight, and more preferably is less than 3% by weight. The weight loss rate measured by the thermogravimetric analysis of a hindered amine light stabilizer (D) to be used for the present invention is a value determined by using a thermo gravimetry differential thermal analyzer (TG-DTA). Described concretely, it is a weight loss rate determined using a thermobalance when the temperature of a hindered amine light stabilizer (D) is increased from room temperature to 300° C. at a rate of 10° C. per minute under a nitrogen gas atmosphere (in a nitrogen flow at a flow rate of 100 ml/min).
From the viewpoint of inhibiting mold staining, the weight loss rate of the nonionic antistatic agent (E) to be used for the present invention measured by thermogravimetric analysis executed at a temperature of 300° C. under a nitrogen atmosphere preferably is less than 20% by weight, and more preferably 5 to 15% by weight. The weight loss rate is determined by the use of a thermo gravimetry differential thermal analyzer (TG-DTA). Described concretely, it is a weight loss rate determined using a thermobalance when the temperature of the nonionic antistatic agent (E) is increased from room temperature to 300° C. at a rate of 10° C. per minute under a nitrogen gas atmosphere (in a nitrogen flow at a flow rate of 100 ml/min).
The weight loss by thermogravimetric analysis (TG-DTA) of a light stabilizer was measured with a thermo gravimetry differential thermal analyzer from room temperature to 300° C. at a temperature increasing rate of 10° C./min under a nitrogen gas atmosphere (gas flow rate: 100 ml/min). […]

Compound | Weight loss rate by TG-DTA
CC1(C)CC(OC(=O)CCCCCCCCC(=O)OC2CC(C)(C)NC(C)(C)C2)CC(C)(C)N1 [Example D-2, Bis(2,2,6,6-tetramethyl-4-piperidyl) sebacate] | 19.6 % by weight
CC(C)(C)c1ccc(OC(=O)c2cc(C(C)(C)C)c(O)c(C(C)(C)C)c2)c(C(C)(C)C)c1 [Example D-3, 2,4-di-tert-butylphenyl 3,5-di-tert-butyl-4-hydroxybenzoate] | 31.6 % by weight
Stearic acid monoglyceride [Example E-1] | 23.8 % by weight
